Experimental data from patent US20160046684A1, “Methods and compositions for treatment of PTP1B-related diseases” (BROWN UNIVERSITY, priority 2014, published 2016).

Target: T1, PTP1B1-301 (Homo sapiens, UniProt P18031)
T1 construct: His6 (cleaved yes); made in house; host or cells: E. coli
T1 sequence (P18031 1-301): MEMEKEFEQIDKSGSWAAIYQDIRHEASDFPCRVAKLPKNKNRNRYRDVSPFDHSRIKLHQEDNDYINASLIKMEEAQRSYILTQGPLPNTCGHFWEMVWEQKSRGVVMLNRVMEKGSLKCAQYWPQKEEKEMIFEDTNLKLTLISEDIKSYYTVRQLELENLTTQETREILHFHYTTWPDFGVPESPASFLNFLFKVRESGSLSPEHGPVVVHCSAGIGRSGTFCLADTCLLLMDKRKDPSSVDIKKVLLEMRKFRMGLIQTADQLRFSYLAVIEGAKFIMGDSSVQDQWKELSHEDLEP
Test: NMR relaxation (R1, R2, hetNOE) of inhibitor-bound PTP1B1-301
Settings: 1:3 ratio of PTP1B1-301 to inhibitor, compared to apo PTP1B1-301
Experimental: Inhibitors were titrated into 200 μM ^15N-PTP1B at molar ratios of 1:1; 1:2, 1:3, 1:5 and 2D [^1H, ^15N] TROSY spectra at 850 MHz were recorded for each titration point. Inhibitors were solubilized in D6-DMSO at 25 mM. CS for PTP1B in the 2D [^1H, ^15N] TROSY spectrum caused by the addition of D6-DMSO were negligible. Chemical shift differences (Δδ) between PTP1B and inhibitor-bound PTP1B (3:1 molar ratio) spectra were calculated using: […]
Changes in motions of the domains of PTP1B1-301 bound to TCS-401 were measured by detecting nuclear relaxation time data at 500 MHz. See, FIG. 8A and FIG. 8B. Fast-timescale backbone dynamics were measured for ligand-free and inhibitor-bound (at 3:1 molar ratios) PTP1B constructs at either 850 or 500 MHz 1H Larmor frequency. ^15N longitudinal (R1) and transverse (R2) relaxation rates and ^15N [^1H]-NOE (hetNOE) measurements were acquired. The hetNOE measurements were determined from a pair of interleaved spectra acquired with or without pre-saturation, and a recycle delay of 5 seconds (only at 500 MHz ^1H Larmor frequency). Error was determined using signal to noise ratio for a given peak.

Structure (SMILES) | effect of inhibitor binding on PTP1B1-301 ps-ns backbone dynamics
O=C(O)C(=O)Nc1sc2c(c1C(=O)O)CCNC2 [TCS-401] | loss of motions in the α7 helix and part of the WPD loop
CCc1oc2cc(S(=O)(=O)Nc3ccc(S(=O)(=O)Nc4nccs4)cc3)ccc2c1C(=O)c1cc(Br)c(O)c(Br)c1 [allosteric site inhibitor, 3-(3,5-Dibromo-4-hydroxy-benzoyl)-2-ethyl-benzofuran-6-sulfonic acid-(4-(thiazol-2-ylsulfamyl)-phenyl)-amide] | minimal effect
